Test results: patent publication US10519150B2, “Salts of morpholine derivative, crystal forms thereof, processes for producing the same, pharmaceutical compositions including the same, and use thereof” (SHANGHAI PHARMACEUTICALS HOLDING CO., LTD., priority 2015, dated 2019)
Entries after “also recorded” stand apart in the source; their conditions may differ. Counter-ions that a name gives are not always drawn.

Key:
[1] = Solubility test in pure water; type: physicochemical; conditions: for Solubility: pure water, 25° C., 5 mg sample; for water solubility: summary statement in description
Protocol: 5 mg of each of the free base and salts of the morpholine derivative in Examples 1-7 was added with pure water gradually at 25° C., until all the samples were completely dissolved. The solubility of each sample was calculated based on the actual weight of the sample and the amount of water.

[2] = Hygroscopicity test (weight change as humidity increased from 20% to 80%); type: physicochemical; conditions: for Weight change in 20%-80% humidity: 5 mg sample, humidity increased from 20% to 80%; for Level (hygroscopicity): 20%-80% humidity
Protocol: 5 mg of each of the salts of the morpholine derivative in the examples was measured for their weight change as the humidity was increased from 20% to 80%.

[3] = Stability test under oxidation condition; type: physicochemical; conditions: for Types of new impurities (type) / The decomposed amount (%): closed container with hydrogen peroxide urea, 40° C., 12 days; for The decomposed amount (%): chiral HPLC vs day 0; for stability under oxidation condition in words: text statement
Protocol: The stability test was conducted on 10 mg of each of the free base and salts of the morpholine derivative in the examples under oxidation condition.

[4] = Stability test under light condition; type: physicochemical; conditions: for stability under light condition in words: text statement; for The decomposed amount (%): light box 4500 Lx ± 500 Lx, 25° C., 12 days, chiral HPLC vs day 0
Protocol: The stability test was carried out on 10 mg of each of the free base, salts of the morpholine derivative in Examples 1-6 under light condition.

[5] = Dynamic Vapor Sorption Analysis (DVS); type: physicochemical; conditions: for hygroscopicity in words: text statement
Protocol: Dynamic Vapor Sorption Analysis (DVS) data was taken from a TA Instruments Q5000 TGA, instrument control software was Thermal Advantage, and analysis software was Universal Analysis. Generally, 1 to 10 mg of the sample was placed in a platinum crucible, the TA software generally recorded the weight change of the sample as the relative humidity changed from 0% to 80% to 0%. According to the specific conditions of the sample, different adsorption and desorption steps might also be applied to the sample.

[6] = background statement on prior-art free base; cited from earlier work
[7] = background statement on prior-art free base; cited from earlier work; remark: listed apart in the source

Row | Structure (SMILES) | Solubility [1] [mg/mL] | water solubility [1] [mg/mL] | Weight change in 20%-80% humidity [2] [%] | Types of new impurities (type) [3] [type] | The decomposed amount (%) [3] [%] | stability under light condition in words [4] | hygroscopicity in words [5] | Level (hygroscopicity) [2] | The decomposed amount (%) [4] [%] | DVS weight change in a range of 20%-80% humidity [5] | further results
1 | COC(=O)NCCCn1nc([C@@H](C)N(C(=O)[C@H]2CNCCO2)C2CC2)c2ccc(C)nc21 [morpholine derivative acetate] | 150 to 300 | 150 to 300 | 21.30 | 5 | 95.71 | good thermal stability | deliquesced |  |  |  | DVS weight loss during the drying stage ([5]; 0% of the initial humidity): about 5%; DVS moisture absorbed, amount of its weight ([5]; 20% to 60% humidity): 6.4%; DVS moisture absorbed, amount of its weight ([5]; 90% of humidity): 40%
2 | COC(=O)NCCCn1nc([C@@H](C)N(C(=O)[C@H]2CNCCO2)C2CC2)c2ccc(C)nc21 [morpholine derivative free base, methyl (3-(3-((R)-1-((R)—N-cyclopropylmorpholine-2-carboxamido)ethyl)-6-methyl-1H-pyrazolo[3,4-b]pyridin-1-yl)n-propyl)carbamate, reference compound] | 5 to 10 |  |  | 6 | 38.0 |  |  | difficult | 100 |  | water solubility in words [6]: poor water solubility; oxidation stability in words [7]: relatively easy to be oxidized
3 | COC(=O)NCCCn1nc([C@@H](C)N(C(=O)[C@H]2CNCCO2)C2CC2)c2ccc(C)nc21 [morpholine derivative tartrate crystal form A] | 100 |  | 1.50 | 6 | 17.93 |  | hardly hydroscopic | difficult | 2.14 | about 1.5% | stability under light condition in words ([4]; listed as crystal form A): equivalent stability; hygroscopicity in words ([5]; listed as crystal form A): hardly hydroscopic
4 | COC(=O)NCCCn1nc([C@@H](C)N(C(=O)[C@H]2CNCCO2)C2CC2)c2ccc(C)nc21 [morpholine derivative hydrochloride] | >500 | > 500 | 31.80 | 6 | 63.53 | good thermal stability | deliquescent; also recorded: very hydroscopic | Very easy | 5.27 |  | DVS water absorbed in 0% to 60% RH ([5]; 0% to 60% RH): 15%
5 | COC(=O)NCCCn1nc([C@@H](C)N(C(=O)[C@H]2CNCCO2)C2CC2)c2ccc(C)nc21 [morpholine derivative malate] | 100 | ~100 | 1.70 | 2 | 8.46 | better stability |  |  | 2.05 | about 1.2% | stability under oxidation condition in words [3]: better stability
6 | COC(=O)NCCCn1nc([C@@H](C)N(C(=O)[C@H]2CNCCO2)C2CC2)c2ccc(C)nc21 [morpholine derivative tartrate crystal form B] | 150 to 300 |  | 6.58 | 4 | 3.24 |  | relatively hydroscopic | easy | 3.61 | about 7% | stability under oxidation condition in words ([3]; listed as crystal form B): more stable than crystal form A; stability under light condition in words ([4]; listed as crystal form B): equivalent stability; hygroscopicity in words ([5]; listed as crystal form B): relatively hydroscopic
7 | COC(=O)NCCCn1nc([C@@H](C)N(C(=O)[C@H]2CNCCO2)C2CC2)c2ccc(C)nc21 [morpholine derivative tartrate dihydrate] | 100 |  | 9.05 |  |  |  | relatively hydroscopic | easy |  |  | DVS weight change in a range of 0%-80% humidity ([5]; 0%-80% humidity): about 11.06%
8 | COC(=O)NCCCn1nc([C@@H](C)N(C(=O)[C@H]2CNCCO2)C2CC2)c2ccc(C)nc21 [morpholine derivative naphthalene disulfonate] | >500 | > 500 |  | 7 | 51.47 | good thermal stability | very hydroscopic | Very easy | 12.58 |  | 
9 | COC(=O)NCCCn1nc([C@@H](C)N(C(=O)[C@H]2CNCCO2)C2CC2)c2ccc(C)nc21 [morpholine derivative tartrate] |  | 50 to 300 |  |  |  |  |  |  |  |  | 
